Residue numbers refer to the chain shown, from its start.
Experiments:
MAS [1] = tested on: MAS; parameters: method as in ref [9] (a number printed in a supplementary file, which may have a reference list of its own: not looked up in the article's list); conditions: Rat MAS; ref [9]; read-out: EC50 (cAMP assay); cited from earlier work
MAS T270A mutant = molecular target: T1, MAS T270A mutant (Homo sapiens, UniProt P04201, T270A); assay: Calcium assay, T270A MAS mutant stable cell line; type: cell-based
T1 construct: expressed in transfected cells
T1 sequence (P04201 1-325 T270A): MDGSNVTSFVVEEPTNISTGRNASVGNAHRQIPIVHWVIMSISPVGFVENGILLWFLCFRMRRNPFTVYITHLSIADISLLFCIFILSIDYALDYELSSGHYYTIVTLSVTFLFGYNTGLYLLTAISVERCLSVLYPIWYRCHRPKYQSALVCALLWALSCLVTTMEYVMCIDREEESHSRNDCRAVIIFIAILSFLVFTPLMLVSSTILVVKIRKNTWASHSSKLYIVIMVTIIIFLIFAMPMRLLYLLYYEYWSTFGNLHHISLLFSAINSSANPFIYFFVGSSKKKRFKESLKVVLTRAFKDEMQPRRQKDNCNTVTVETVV
Protocol: (§1) The assay was performed using FLIPR Calcium 5 assay kit (Molecular Devices, Sunnyvale, CA). For calcium measurements, cells at a density of 125,000 cells/well in 100 µl medium were seeded onto a 96-well clear bottom black cell culture plate that was pre-coated with poly-L-lysine. In the calcium assays the cell density of 125,000 cells/well was consistently maintained to minimize variability between independent experiments. The cells were seeded in induction media to induce MAS expression or in complete media for negative controls. The plate was maintained in a cell culture incubator for 26–28 h. The cells were then serum starved for 2 h by replacing the medium with 100 µl of serum free DMEM. In the case of pre-treatment with pan-inhibitor of G protein signaling, BIM-46187, the cells were initially serum starved for 1 h by replacing the medium with 50 µl of serum free DMEM. After 1 h, 50 µl of BIM-46187 was added to the cells to a final concentration of 25 µM and treated for another 1 h. Following serum starvation, 100 µl of calcium sensitive dye along with 2x (2.5 mM final concentration) probenecid (Life Technologies, Grand Island, NY) was added to the cells. During this step, AR-inverse agonist or BIM-46187 was also added at desired concentrations to the calcium dye preparation in case of experiments where cells were pre-treated with these inhibitors. The cells were maintained for one hour in the cell culture incubator. […] The instrument was programmed in FLEX mode to add ligands (50 µl at 5x concentration) to the cells and to monitor the fluorescence before and after adding the ligands. […]
(§2) The kinetic parameter t1/2 (time taken to reach half of the maximum response) was determined using SoftMax Pro software supplied with the FlexStation 3 instrument (Molecular Devices, Sunnyvale, CA).
(§3) For re-stimulation assays, the data is expressed as the percentage of maximum agonist stimulation to allow for ready comparison between individual experiments. […]

MAS M244A mutant = molecular target: T2, MAS M244A mutant (Homo sapiens, UniProt P04201, M244A); assay: Calcium assay, M244A MAS mutant stable cell line; type: cell-based
T2 construct: expressed in transfected cells
T2 sequence (P04201 1-325 M244A): T1 sequence (P04201 1-325 T270A) with M244A, A270T
Protocol: as §1, §2, §3

MAS I191A mutant = molecular target: T3, MAS I191A mutant (Homo sapiens, UniProt P04201, I191A); assay: Calcium assay, I191A MAS mutant stable cell line; type: cell-based
T3 construct: expressed in transfected cells
T3 sequence (P04201 1-325 I191A): T1 sequence (P04201 1-325 T270A) with I191A, A270T
Protocol: as §1, §2, §3

MAS [2] = molecular target: T4, MAS (Homo sapiens, UniProt P04201); parameters: method as in ref [9] (a number printed in a supplementary file, which may have a reference list of its own: not looked up in the article's list); conditions: ref [9], read-out: EC50 (IP1 assay); cited from earlier work
T4 construct: expressed in transfected cells
T4 sequence (P04201 1-325): T1 sequence (P04201 1-325 T270A) with A270T

MAS F112A mutant = molecular target: T5, MAS F112A mutant (Homo sapiens, UniProt P04201, F112A); assay: Calcium assay, F112A MAS mutant stable cell line; type: cell-based
T5 construct: expressed in transfected cells
T5 sequence (P04201 1-325 F112A): T1 sequence (P04201 1-325 T270A) with F112A, A270T
Protocol: as §1, §2, §3

COc1cc([N+](=O)[O-])ccc1S(=O)(=O)N1CC(CN2CCN(c3ccccn3)CC2)C(c2cccc(F)c2)C1 (stereo not shown) [AR-agonist]
EC50 (MAS [1]): 1710 nM | EC50, Calcium assay (MAS T270A mutant): cbd | t1/2, Calcium assay (MAS T270A mutant): 40.0 ± 1.2 s | EC50, Calcium assay (MAS M244A mutant): cbd | t1/2, Calcium assay (MAS M244A mutant): cbd | EC50 (MAS I191A mutant): 17600 ± 3800 nM | t1/2, Calcium assay (MAS I191A mutant): 68.3 ± 5.3 s | EC50 (MAS [2]): 350 nM | EC50, Calcium assay (MAS F112A mutant): cbd | t1/2, Calcium assay (MAS F112A mutant): cbd
